From patent US7186530B1, “Protein associated with cell stress response” (Chiron Corporation, priority 2000, dated 2007)

Key:
p46 hyperphosphorylation [1] = test: p46 hyperphosphorylation induced by stress-inducing agents, Western blot; format: cell-based, human; settings: for hyperphosphorylation of p46 (induction): 45 minutes
Method: FIG. 4. […] (A) IMR90 cells were treated with 0, 0.5, 1, or 4 μM of BPDE and trypsinized after 30 minutes. (B) IMR90 cells were incubated in the presence or absence of suramin (0.15 mM) for 1 hour before being irradiated with 0 or 20 J/m^2 of UVC. (C) IMR90 cells were treated with 0.7 M NaCl, 1 mM H2O2, 0.4 M Sorbitol or PBS (control) for 45 minutes before being lysed.
(§1) Cell culture and treatment. Normal human fibroblast IMR90 was purchased from American Type Culture Collection (Manassas, Va.). Cells were routinely cultured in Dulbecco's Modified Eagle's Medium (DMEM) containing 10% fetal bovine serum, 2 mM L-glutamine, 4.5 g/liter glucose, 100 units penicillin and 100 μg streptomycin at 37° C. under an atmosphere of 5% CO2. For UV irradiation, cells were washed twice with phosphate-buffered saline (PBS) and then irradiated with appropriate doses of UVC (254 nm). Fresh complete medium was added back and cells were lysed at appropriate times. For treatment with BPDE, cells were washed with PBS twice and fresh DMEM was added. BPDE was dissolved in anhydrous dimethyl sulfoxide (DMSO) and appropriate amount of BPDE solution was added to DMEM. Cells were lysed 30 minutes later.
(§2) Western Blotting. Lysates prepared from equal number of cells were mixed with equal volume of 2× sample buffer (50 mM Tris.HCl, pH 6.9, 9% glycerol, 2.3% SDS, 0.1% bromophenol blue and 10% mecaptoethanol) and the proteins were separated on a SDS/polyacrylamide gel. The proteins were then electroblotted onto an Immobilon-P membrane (Millipore, Bedford, Mass.). The blots were blocked for 1 hour at room temperature in Tris-buffered saline (20 mM Tris-HCl, pH 7.6, 137 mM NaCl) containing 0.1% (v/v) Tween 20 and 5% (w/v) non-fat dry milk (blocking solution), and then incubated for 1 hour at room temperature with appropriate antibodies at a concentration of 0.2–1 μg/ml. The blots were washed several times and then incubated with horseradish peroxidase-conjugated goat-anti-mouse IgG (Santa Cruz Biotechnology) that had been diluted 1:3000 with blocking solution. Enhanced chemiluminescence (Amersham, Arlington Heights, Ill.) was used according to the manufacturer's recommendations to detect the signal.
(§3) The data shown in FIG. 4 were obtained as follows. (A) IMR90 cells were treated with 0, 0.5, 1, or 4 μM of BPDE and trypsinized after 30 minutes. Digitonin-solubilized fraction (Cyto) and NP-40-solubilized fraction (Nuc) were separated on SDS-PAGE. SC-54 was used for Western Blotting. In FIG. 4, (B) IMR90 cells were incubated in the presence or absence of suramin (0.15 mM) for 1 hour before being irradiated with 0 or 20 J/m^2 of UVC. After 0, 10, 20 or 30 minutes, whole cell lysates were prepared, separated on SDS-PAGE and transferred to a PVDF membrane. SC-54 or an antibody against human ERK2 was used for Western Blotting. […] In FIG. 4, (C) IMR90 cells were treated with 0.7 M NaCl, 1 mM H2O2, 0.4 M Sorbitol or PBS (control) for 45 minutes before being lysed. Whole cell lysates were separated on SDS-PAGE. SC-54 was used for Western Blotting.

p46 hyperphosphorylation [2] = test: p46 (Nogo B) hyperphosphorylation after UVC irradiation in presence of inhibitors, Western blot with SC-54; format: cell-based, human
Method: FIG. 5. […] Then cells were irradiated with 20 J/m^2 of UVC and lysed 30 minutes later. Whole cell lysates were separated on SDS-PAGE. SC-54 was used for Western Blotting.
as §1, §2, §3
It has been shown that elevated cellular stress level can activate p38 MAPK. The role of activation of p38 MAPK in p46 hyperphosphorylation was investigated.

MEK = settings: cited from earlier work
p38 = settings: read-out: IC50 (p38-specific inhibitor); cited from earlier work
ERK2 = ERK2 phosphorylation after UVC irradiation, Western blot; format: cell-based, human; settings: preincubation 0.15 mM for 1 hour, 20 J/m^2 UVC, IMR90 cells
Method: as §2
The data shown in FIG. 4 were obtained as follows. (A) IMR90 cells were treated with 0, 0.5, 1, or 4 μM of BPDE and trypsinized after 30 minutes. Digitonin-solubilized fraction (Cyto) and NP-40-solubilized fraction (Nuc) were separated on SDS-PAGE. SC-54 was used for Western Blotting. […]

OC1c2cc3ccc4cccc5ccc(c2C2OC2C1O)c3c45 (racemic) [BPDE, (±)-r-7,t-8-dihydroxy-t-9,10-epoxy-7,8,9,10-tetrahydrobenzo(a)pyrene]
p46 hyperphosphorylation (induction) (p46 hyperphosphorylation [1]; 0, 0.5, 1, or 4 μM, 30 minutes, IMR90 cells): led to p46 hyperphosphorylation in a dose-dependent manner

OO [H2O2]
hyperphosphorylation of p46 (induction) (p46 hyperphosphorylation [1]; 1 mM, IMR90 cells): rapid hyperphosphorylation

[Cl-].[Na+] [NaCl]
hyperphosphorylation of p46 (induction) (p46 hyperphosphorylation [1]; 0.7 M, IMR90 cells): rapid hyperphosphorylation

COc1cccc(-c2cc(=O)c3ccccc3o2)c1N [PD98059]
p46 hyperphosphorylation (p46 hyperphosphorylation [2]; 20 uM): not affected

Oc1ccc(-c2nc(-c3ccc(F)cc3)c(-c3ccncc3)[nH]2)cc1 [SB202190]
p46 hyperphosphorylation (p46 hyperphosphorylation [2]; 270 nM inhibitor, 30 minutes before 20 J/m^2 UVC, IMR90 cells): almost completely abolished
hyperphosphorylation of Nogo (p46 hyperphosphorylation [2]; indicated concentrations for 30 minutes, then 20 J/m^2 UVC, lysed 30 minutes later, IMR90 (FIG. 5)): abolished

CCc1nc(-c2ccc(OC)cc2)[nH]c1-c1ccncc1 [SB202474]
p46 hyperphosphorylation (p46 hyperphosphorylation [2]; concentration not given, UVC, IMR90 cells): no effect

C[C@@]1(CO)[C@H](O)CC[C@@]2(C)[C@H]1CC[C@H]1C[C@@H]3C[C@@]12CC[C@]3(O)CO [aphidicolin]
p46 phosphorylation state (p46 hyperphosphorylation [1]; cells arrested by the agent): hyperphosphorylated

OC[C@@H](O)[C@@H](O)[C@H](O)[C@@H](O)CO [sorbitol]
hyperphosphorylation of p46 (induction) (p46 hyperphosphorylation [1]; 0.4 M, IMR90 cells): rapid hyperphosphorylation

Cc1ccc(C(=O)Nc2ccc(S(=O)(=O)O)c3cc(S(=O)(=O)O)cc(S(=O)(=O)O)c23)cc1NC(=O)c1cccc(NC(=O)Nc2cccc(C(=O)Nc3cc(C(=O)Nc4ccc(S(=O)(=O)O)c5cc(S(=O)(=O)O)cc(S(=O)(=O)O)c45)ccc3C)c2)c1 [suramin]
p46 hyperphosphorylation (p46 hyperphosphorylation [2]; preincubation 0.15 mM for 1 hour, 20 J/m^2 UVC, IMR90 cells): no effect
phosphorylation of ERK2 (ERK2): completely blocked
